Several values for one entry are separate records, joined by “and”; a condition that tells them apart may be missing. Equal entries are not always repeated. Toxic doses and inconclusive results are not listed.

The assay has as its system CD2F1 mice, L1210 leukemia ip, survival T/C. Put plainly: NCI In Vivo Anticancer Drug Screen. Data for tumor model L1210 Leukemia (intraperitoneal) in CD2F1 (CDF1) mice. Particulars: higher = longer survival. The gist of the method:
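Each value reflects a quotient of treated over vehicle control outcomes in mice with a transplanted tumor.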

Setting [1] is: endpoint: mean survival time, dose: 50.0 mg/kg/injection, schedule: Q04DX003 (ip), vehicle: other.
Where [2] appears, read: endpoint: mean survival time, dose: 50.0 mg/kg/injection, schedule: Q01DX009 (ip), vehicle: saline with Tween-80.
[3] abbreviates: endpoint: mean survival time, dose: 100.0 mg/kg/injection, schedule: Q01DX009 (ip), vehicle: saline with Tween-80.
[4] abbreviates: endpoint: mean survival time, dose: 200.0 mg/kg/injection, schedule: Q01DX009 (ip), vehicle: saline with Tween-80.
Where [5] appears, read: endpoint: mean survival time, dose: 400.0 mg/kg/injection, schedule: Q01DX009 (ip), vehicle: saline with Tween-80.

For `CCCCCC1c2cc(O)ccc2OC1N1CCOCC1` (centres undefined), the T/C is 108 % of control (endpoint: median survival time, dose: 12.0 mg/kg/injection, schedule: Q01DX009 (ip), vehicle: saline with Tween-80); 106 % of control (endpoint: median survival time, dose: 25.0 mg/kg/injection, schedule: Q01DX009 (ip), vehicle: saline with Tween-80); 97 % of control (endpoint: median survival time, dose: 50.0 mg/kg/injection, schedule: Q01DX009 (ip), vehicle: saline with Tween-80); 102 % of control (endpoint: median survival time, dose: 100.0 mg/kg/injection, schedule: Q01DX009 (ip), vehicle: saline with Tween-80); 98 % of control (endpoint: median survival time, dose: 200.0 mg/kg/injection, schedule: Q01DX009 (ip), vehicle: saline with Tween-80).

`CCCCSc1cc(C)nc2ccccc12`: the T/C (endpoint: mean survival time, dose: 100.0 mg/kg/injection, schedule: Q04DX002 (ip), vehicle: saline with Tween-80) is 96 % of control.

Turning to `CN(N=O)C(=O)N[C@@H](C=O)[C@@H](O)[C@H](O)[C@H](O)CO`, the T/C (endpoint: mean survival time, dose: 12.5 mg/kg/injection, schedule: Q01DX005 (ip), vehicle: other) was 104 % of control; the T/C (endpoint: mean survival time, dose: 19.6 mg/kg/injection, schedule: Q01DX009 (ip), vehicle: other) was 104 % of control; the T/C (endpoint: mean survival time, dose: 25.0 mg/kg/injection, schedule: Q01DX001 (ip), vehicle: other) was 102 % of control and 103 % of control; the T/C (endpoint: mean survival time, dose: 25.0 mg/kg/injection, schedule: Q01DX005 (ip), vehicle: other) is 112 % of control; the T/C (endpoint: mean survival time, dose: 25.0 mg/kg/injection, schedule: Q04DX003 (ip), vehicle: other) was 102 % of control; the T/C (endpoint: mean survival time, dose: 29.3 mg/kg/injection, schedule: Q01DX009 (ip), vehicle: other) is 107 % of control. Further, the T/C runs as follows: (endpoint: mean survival time, dose: 32.0 mg/kg/injection, schedule: Q03HX008 (ip), vehicle: other) 98 % of control; (endpoint: mean survival time, dose: 32.0 mg/kg/injection, schedule: Q03HX016 (ip), vehicle: other) 98 % of control; (endpoint: mean survival time, dose: 37.5 mg/kg/injection, schedule: Q01DX001 (ip), vehicle: other) 107 % of control; (endpoint: mean survival time, dose: 44.0 mg/kg/injection, schedule: Q01DX009 (ip), vehicle: other) 117 % of control; (endpoint: mean survival time, dose: 50.0 mg/kg/injection, schedule: Q01DX001 (ip), vehicle: other) 94 % of control and 105 % of control; (endpoint: mean survival time, dose: 50.0 mg/kg/injection, schedule: Q01DX005 (ip), vehicle: other) 117 % of control. Moreover, the T/C runs as follows: under setting [1], 106 % of control; (endpoint: mean survival time, dose: 64.0 mg/kg/injection, schedule: Q03HX008 (ip), vehicle: other) 96 % of control; (endpoint: mean survival time, dose: 64.0 mg/kg/injection, schedule: Q03HX016 (ip), vehicle: other) 95 % of control; (endpoint: mean survival time, dose: 75.0 mg/kg/injection, schedule: Q01DX001 (ip), vehicle: other) 98 % of control; (endpoint: mean survival time, dose: 100.0 mg/kg/injection, schedule: Q01DX001 (ip), vehicle: other) 113 % of control and 103 % of control; (endpoint: mean survival time, dose: 100.0 mg/kg/injection, schedule: Q01DX005 (ip), vehicle: other) 116 % of control. Besides, the T/C is 111 % of control (endpoint: mean survival time, dose: 100.0 mg/kg/injection, schedule: Q01DX009 (ip), vehicle: saline); 109 % of control (endpoint: mean survival time, dose: 100.0 mg/kg/injection, schedule: Q04DX003 (ip), vehicle: other); 102 % of control (endpoint: mean survival time, dose: 128.0 mg/kg/injection, schedule: Q03HX008 (ip), vehicle: other); 108 % of control (endpoint: mean survival time, dose: 128.0 mg/kg/injection, schedule: Q03HX016 (ip), vehicle: other); 104 % of control (endpoint: mean survival time, dose: 150.0 mg/kg/injection, schedule: Q01DX001 (ip), vehicle: other); 118 % of control and 124 % of control and 106 % of control (endpoint: mean survival time, dose: 200.0 mg/kg/injection, schedule: Q01DX001 (ip), vehicle: other). Besides, the T/C is 103 % of control (endpoint: mean survival time, dose: 200.0 mg/kg/injection, schedule: Q01DX009 (ip), vehicle: saline); 120 % of control (endpoint: mean survival time, dose: 200.0 mg/kg/injection, schedule: Q04DX003 (ip), vehicle: other); 109 % of control (endpoint: mean survival time, dose: 250.0 mg/kg/injection, schedule: Q01DX001 (ip), vehicle: other); 108 % of control (endpoint: mean survival time, dose: 256.0 mg/kg/injection, schedule: Q03HX008 (ip), vehicle: other); 113 % of control (endpoint: mean survival time, dose: 256.0 mg/kg/injection, schedule: Q03HX016 (ip), vehicle: other); 119 % of control and 110 % of control (endpoint: mean survival time, dose: 300.0 mg/kg/injection, schedule: Q01DX001 (ip), vehicle: other). The T/C is 113 % of control (endpoint: mean survival time, dose: 350.0 mg/kg/injection, schedule: Q01DX001 (ip), vehicle: other); 117 % of control and 102 % of control (endpoint: mean survival time, dose: 400.0 mg/kg/injection, schedule: Q01DX001 (ip), vehicle: other); 100 % of control (endpoint: median survival time, dose: 21.6 mg/kg/injection, schedule: Q01DX009 (ip), vehicle: saline); 102 % of control (endpoint: median survival time, dose: 36.0 mg/kg/injection, schedule: Q01DX009 (ip), vehicle: saline); 109 % of control (endpoint: median survival time, dose: 60.0 mg/kg/injection, schedule: Q01DX009 (ip), vehicle: saline); 110 % of control (endpoint: median survival time, dose: 100.0 mg/kg/injection, schedule: Q01DX009 (ip), vehicle: saline).

For the molecule `CCC(=O)c1ccc2c(c1)N(CCCN1CCN(CCO)CC1)c1ccccc1S2`, the T/C (endpoint: mean survival time, dose: 25.0 mg/kg/injection, schedule: Q04DX003 (ip), vehicle: Klucel (hydroxypropylcellulose) (HPC)) was 97 % of control and the T/C (endpoint: mean survival time, dose: 100.0 mg/kg/injection, schedule: Q04DX003 (ip), vehicle: Klucel (hydroxypropylcellulose) (HPC)) is 116 % of control.

Take `c1ccc(CC23CN(C4CCCCC4)CC24N(c2ccccc23)C23CN(C5CCCCC5)CC2(Cc2ccccc2)c2ccccc2N43)cc1` (centres undefined): where the note is “endpoint: mean survival time, dose: 100.0 mg/kg/injection, schedule: Q01DX001 (ip), vehicle: saline with Tween-80”, the T/C was 90 % of control.

`Nc1cc2c(c[n+](CCCCCCCC[n+]3cc4c5ccccc5c(N)cc4c4ccccc43)c3ccccc23)c2ccccc12`: the T/C is 114 % of control (endpoint: mean survival time, dose: 0.78 mg/kg/injection, schedule: Q04DX003 (ip), vehicle: other); 157 % of control (endpoint: mean survival time, dose: 1.56 mg/kg/injection, schedule: Q04DX003 (ip), vehicle: other); 124 % of control (endpoint: mean survival time, dose: 3.13 mg/kg/injection, schedule: Q04DX003 (ip), vehicle: other); 157 % of control (endpoint: mean survival time, dose: 12.5 mg/kg/injection, schedule: Q04DX003 (ip), vehicle: other); 124 % of control and 103 % of control under setting [1].

Turning to `O=C1NC(=O)c2cc(C(F)(F)F)ccc21`, the T/C is, setting by setting: (endpoint: mean survival time, dose: 6.25 mg/kg/injection, schedule: Q01DX009 (ip), vehicle: saline with Tween-80) 95 % of control; (endpoint: mean survival time, dose: 12.5 mg/kg/injection, schedule: Q01DX009 (ip), vehicle: saline with Tween-80) 89 % of control; (endpoint: mean survival time, dose: 12.5 mg/kg/injection, schedule: Q04DX003 (ip), vehicle: saline with Tween-80) 101 % of control; (endpoint: mean survival time, dose: 25.0 mg/kg/injection, schedule: Q04DX003 (ip), vehicle: saline with Tween-80) 100 % of control.

Regarding `O=[N+]([O-])c1cc2ccccc2c(O)c1O`, the T/C was 102 % of control (endpoint: mean survival time, dose: 25.0 mg/kg/injection, schedule: Q01DX009 (ip), vehicle: saline with Tween-80); 108 % of control under setting [2]; 91 % of control (endpoint: mean survival time, dose: 100.0 mg/kg/injection, schedule: Q04DX003 (ip), vehicle: saline with Tween-80).

With `Nc1cc2c(ncn2C2OC(CO)C(O)C2O)c(=O)n1N` (centres undefined), the T/C is 96 % of control (endpoint: mean survival time, dose: 12.5 mg/kg/injection, schedule: Q01DX005 (ip), vehicle: distilled water + Tween-80); 97 % of control (endpoint: mean survival time, dose: 25.0 mg/kg/injection, schedule: Q01DX005 (ip), vehicle: distilled water + Tween-80); 105 % of control (endpoint: mean survival time, dose: 50.0 mg/kg/injection, schedule: Q01DX005 (ip), vehicle: distilled water + Tween-80); 94 % of control (endpoint: mean survival time, dose: 100.0 mg/kg/injection, schedule: Q01DX005 (ip), vehicle: distilled water + Tween-80); 94 % of control (endpoint: mean survival time, dose: 200.0 mg/kg/injection, schedule: Q01DX005 (ip), vehicle: distilled water + Tween-80).

`O=C(O)/C=C\c1cccc([N+](=O)[O-])c1`: the T/C is, setting by setting: under setting [3], 94 % of control; under setting [4], 103 % of control; under setting [5], 88 % of control.

Take `COc1ccc(OCCOC(=O)Nc2c(Cl)cccc2Cl)cc1`: the T/C reads like this: under setting [2], 98 % of control; under setting [3], 94 % of control; under setting [4], 94 % of control.

With `CS(=O)CCO` (centres undefined), the T/C was 93 % of control (endpoint: mean survival time, dose: 100.0 mg/kg/injection, schedule: Q04DX002 (ip), vehicle: saline); 107 % of control (endpoint: mean survival time, dose: 200.0 mg/kg/injection, schedule: Q04DX002 (ip), vehicle: saline); 104 % of control (endpoint: mean survival time, dose: 400.0 mg/kg/injection, schedule: Q04DX002 (ip), vehicle: saline).

On to `Cc1c[nH]c(=O)c[n+]1[O-]`, for which the T/C was 100 % of control under setting [3], 100 % of control under setting [4] and 97 % of control under setting [5].
